This passage reports IC50 results from US20240417410A1, “TRICYCLIC COMPOUNDS FOR THE TREATMENT OF CANCER” (Hoffmann-La Roche Inc., priority 2023, published 2024).

pIC50: −log10 of the molar value.

In test [1] the test system is phosphorylation of ERK, KRAS G12V in SW620. The experiment in a line: pERK inhibition assay. In kind it is cell-based. Particulars: Homo sapiens, SW-620, 4 h, SW620 cells. The essentials:
(§1)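 NCI-H358 (KRAS G12C), AGS (G12D) and SW620 (G12V) cells plated overnight, then treated with compound for 4 h in 0.5% DMSO. After fixing and methanol permeabilisation, phospho-ERK was detected by in-cell ELISA (HRP/TMB, OD450). IC50 from a 4-parameter sigmoidal fit.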

The test system of test [2] is phosphorylation of ERK, KRAS G12D in AGS cells. The experiment in a line: pERK inhibition assay. In kind it is cell-based. The note with it: Homo sapiens, AGS, 4 h. The gist of the method:
as §1

Test [3] has as its system phosphorylation of ERK, KRAS G12C in NCI-H358 cells. Nature of the test: pERK inhibition assay. In kind it is cell-based. Particulars: Homo sapiens, NCI-H358, 4 h. The essentials:
as §1

Test [4] deals with NCI-H358 cells (KRAS G12C). Nature of the test: Cell viability assay (Cell Counting Kit-8, 3-day). In kind it is cell-based, human. Particulars: Homo sapiens, NCI-H358, 72 h, NCI-H358, 72 hrs incubation. The essentials: (§2)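 IC50 derived by 4-parameter sigmoidal fit of CCK-8 signal (OD450−OD650, 2 h development) after 72 h compound exposure in 0.5% DMSO. Seeding density was 5,000 cells/well for NCI-H358 and 2,000 cells/well for AGS and SW620, plated overnight before dosing.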
In general terms: Tetrazolium assays rely on reduction of a dye to a coloured formazan, in cell work by metabolically active cells.

A further test deals with AGS cells (KRAS G12D). Nature of the test: Cell viability assay (Cell Counting Kit-8, 3-day). In kind it is cell-based, human. The note with it: Homo sapiens, 72 h, 72 hrs incubation. The gist of the method:
as §2

In the next test the test system is SW620 cells (KRAS G12V). Nature of the test: Cell viability assay (Cell Counting Kit-8, 3-day). In kind it is cell-based, human. The note with it: Homo sapiens, SW-620; SW620, 72 hrs incubation. The gist of the method:
as §2

For the next test, the target named is KRAS G12C-BRAF complex (Homo sapiens (Human), UniProt P01116+P62937, G12C). Nature of the test: KRAS-BRAF with CYPA (500 nM) interaction assay (TR-FRET, Example 136). Particulars: KRAS G12C-BRAF disruption. In kind it is biochemical.
Sequence of KRAS G12C-BRAF complex (P01116-2 other isoform, or with tags, fused parts or gaps G12C): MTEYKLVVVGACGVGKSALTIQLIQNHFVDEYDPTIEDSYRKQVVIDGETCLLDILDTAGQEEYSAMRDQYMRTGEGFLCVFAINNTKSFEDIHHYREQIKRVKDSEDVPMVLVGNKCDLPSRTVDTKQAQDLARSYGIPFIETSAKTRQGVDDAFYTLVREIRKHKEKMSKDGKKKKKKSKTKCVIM
Sequence of KRAS G12C-BRAF complex (P62937 whole entry): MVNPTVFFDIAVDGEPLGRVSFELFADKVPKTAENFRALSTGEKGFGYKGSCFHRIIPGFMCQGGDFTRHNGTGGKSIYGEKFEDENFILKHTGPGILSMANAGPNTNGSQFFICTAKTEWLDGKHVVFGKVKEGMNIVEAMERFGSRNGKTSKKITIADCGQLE

As to `CO[C@@H](C)c1ncc(N2CCN(C)CC2)cc1-c1c2c3cc(cc4c3n1CCC4)-c1csc(n1)C[C@H](NC(=O)[C@H]1C[C@@H]1c1cncnc1)C(=O)N1CCC[C@H](N1)C(=O)OCC(C)(C)C2` (atropisomer, axis not shown; (M)) [Example 47, (1S,2S)-N-[(7S,13S)-(20M)-20-[2-[(1S)-1-methoxyethyl]-5-(4-methylpiperazin-1-yl)-3-pyridyl]-17,17-dimethyl-8,14-dioxo-15-oxa-4-thia-9,21,30,31-tetrazahexacyclo[23.3.1.1^2,5.1^9,13.0^19,27.0^21,26]hentriaconta-1 (28),2,5 (31), 19,25 (29),26-hexaen-7-yl]-2-pyrimidin-5-yl-cyclopropanecarboxamide], the pIC50 (usually the negative decadic logarithm of the IC50, by convention in mol/L) was 8.85 in test [1]; 8.32 in test [2]; 8.92 in test [3]; 8.60 in test [4]; 7.99 in the test with AGS cells (KRAS G12D); 9.05 in the test with SW620 cells (KRAS G12V). The molecule also had a pIC50 against KRAS G12C-BRAF complex of 7.67.

Consider `CO[C@@H](C)c1ncc(N2CCN(C)CC2)cc1-c1c2c3cc(c(F)c4c3n1CCC4)-c1csc(n1)C[C@H](NC(=O)[C@H]1[C@H](C)[C@@H]1C)C(=O)N1CCC[C@H](N1)C(=O)OCC(C)(C)C2` (atropisomer, axis not shown; (M)) [Example 124, (1r,2S,3R)-N-[(7S,13S)-29-fluoro-(20M)-20-[2-[(1S)-1-methoxyethyl]-5-(4-methylpiperazin-1-yl)-3-pyridyl]-17,17-dimethyl-8,14-dioxo-15-oxa-4-thia-9,21,30,31-tetrazahexacyclo[23.3.1.1^2,5.1^9,13.0^19,27.0^21,26]hentriaconta-1 (28),2,5 (31), 19,25 (29),26-hexaen-7-yl]-2,3-dimethyl-cyclopropanecarboxamide], for which the pIC50 is 9.15 in test [1]; 7.80 in test [2]; 8.85 in test [3]; 8.05 in test [4]; 7.86 in the test with AGS cells (KRAS G12D); 8.80 in the test with SW620 cells (KRAS G12V). For the same molecule, on KRAS G12C-BRAF complex, the pIC50 was 7.79.

On to `CO[C@@H](C)c1ncc(N2CCN(C)CC2)cc1-c1c2c3cc(cc4c3n1CCO4)-c1csc(n1)C[C@H](NC(=O)[C@@H]1C[C@H]1C1CC1)C(=O)N1CCC[C@H](N1)C(=O)OCC(C)(C)C2` (atropisomer, axis not shown; (M)) [Example 64, (1R,2S)-2-cyclopropyl-N-[(7S,13S)-(20M)-20-[2-[(1S)-1-methoxyethyl]-5-(4-methylpiperazin-1-yl)-3-pyridyl]-17,17-dimethyl-8,14-dioxo-15,24-dioxa-4-thia-9,21,30,31-tetrazahexacyclo[23.3.1.1^2,5.1^9,13.0^19,27.0^21,26]hentriaconta-1 (29),2,5 (31), 19,25,27-hexaen-7-yl]cyclopropanecarboxamide], for which the pIC50 in test [1] is 9.22; in test [2], 8.43; in test [3], 8.92; in test [4] it was 8.10; with AGS cells (KRAS G12D), 7.66; in the test on SW620 cells (KRAS G12V), 8.89. This molecule also had a pIC50 against KRAS G12C-BRAF complex of 7.76.

In the case of `CO[C@@H](C)c1ncc(N2CCN(C)CC2)cc1-c1c2c3cc(cc4c3n1CCC4)-c1csc(n1)C[C@H](NC(=O)[C@@H]1C[C@H]1c1cscn1)C(=O)N1CCC[C@H](N1)C(=O)OCC(C)(C)C2` (atropisomer, axis not shown; (M)) [Example 114, (1R,2R)-N-[(7S,13S)-(20M)-20-[2-[(1S)-1-methoxyethyl]-5-(4-methylpiperazin-1-yl)-3-pyridyl]-17,17-dimethyl-8,14-dioxo-15-oxa-4-thia-9,21,30,31-tetrazahexacyclo[23.3.1.1^2,5.1^9,13.0^19,27.0^21,26]hentriaconta-1 (28),2,5 (31), 19,25 (29),26-hexaen-7-yl]-2-thiazol-4-yl-cyclopropanecarboxamide], the pIC50 in test [1] is 9.00; in test [2], 8.12; in test [3], 8.92; in test [4] it was 8.35; in the test with AGS cells (KRAS G12D) it was 8.29; with SW620 cells (KRAS G12V), 8.89. The pIC50 at KRAS G12C-BRAF complex is 8.05.
